Source: paper PMC5515859, “Metabolism of F18, a Derivative of Calanolide A, in Human Liver Microsomes and Cytosol” (Frontiers in Pharmacology, 2017)

Key:
Assay type in all cases: in vitro ADME
rat liver microsomes = assay: Incubation of F18 with rat liver microsomes, metabolite profiling; design: key: +: Metabolite detected; −: metabolite not detected; details: F18 50 μM, 1 h
Procedure: A stock solution of F18 (5 mM) was prepared in methanol. F18 (50 μM) was incubated with RLMs/DLMs/MLMs/HLMs and HLcy (0.5 mg protein/mL) in 50 mM Tris-HCl buffer containing 5 mM MgCl2 (pH 7.4) in a final volume of 200 μL. The final concentration of methanol in the incubation system was 1% (v/v). After 3 min of preincubation at 37°C, the reactions were initiated by the addition of NADPH-regenerating system (10-mM β-NADP, 100-mM 6-G-P and 10-U/mL 6-G-P-DH) or NADH. After incubation for 1 h, the reactions were terminated by the addition of two volumes of ice-cold acetonitrile. Samples without NADPH or NADH were included as controls. The incubation mixture was vortexed and centrifuged at 13,300 × g for 5 min. A 10 μL aliquot of the supernatant was injected into an LC-tandem mass spectrometer (LC-MS/MS) for analysis.
Metabolic profiling studies were performed with a Finnigan TSQ Quantum MS instrument with an electrospray ionization probe and a Finnigan SURVEYOR HPLC system (Thermo Finnigan, San Jose, CA, USA). HPLC was performed with a Zorbax SB-C18 column (2.1 × 100 mm, 3.5 μm, Agilent Corporation, CA, USA) with a column temperature of 35°C and a flow rate of 200 μL/min. F18 and its metabolites were eluted using a linear gradient method with a mobile phase consisting of solvent A (water with 0.1% formic acid) and solvent B (acetonitrile with 0.1% formic acid). […] The samples were analyzed in the positive-ionization mode, and the TSQ capillary temperature was set to 350°C. Nitrogen was used as both the sheath gas and the auxiliary gas and was delivered at 30 psi and 15 psi, respectively. The spray voltage and tube lens were set to 3,800 V and 123 V, respectively. The full-width half maximum (FWHM) was set to 0.7. MS data were acquired in the selective ion-recording mode or by collecting full scans from 200 to 600 m/z at 1 scan/s. The mass spectrometer and HPLC system were operated using Xcalibur 2.0.7 software.

recombinant FMO1 = target: T1, recombinant FMO1 (Homo sapiens, UniProt Q01740); assay: Metabolism of F18 by cDNA-expressed FMO1; details: F18 10 μM, 50 pmol/mL enzyme, 1 h
T1 construct: purchased BD Gentest (Woburn, MA, USA)
T1 sequence (Q01740 1-532): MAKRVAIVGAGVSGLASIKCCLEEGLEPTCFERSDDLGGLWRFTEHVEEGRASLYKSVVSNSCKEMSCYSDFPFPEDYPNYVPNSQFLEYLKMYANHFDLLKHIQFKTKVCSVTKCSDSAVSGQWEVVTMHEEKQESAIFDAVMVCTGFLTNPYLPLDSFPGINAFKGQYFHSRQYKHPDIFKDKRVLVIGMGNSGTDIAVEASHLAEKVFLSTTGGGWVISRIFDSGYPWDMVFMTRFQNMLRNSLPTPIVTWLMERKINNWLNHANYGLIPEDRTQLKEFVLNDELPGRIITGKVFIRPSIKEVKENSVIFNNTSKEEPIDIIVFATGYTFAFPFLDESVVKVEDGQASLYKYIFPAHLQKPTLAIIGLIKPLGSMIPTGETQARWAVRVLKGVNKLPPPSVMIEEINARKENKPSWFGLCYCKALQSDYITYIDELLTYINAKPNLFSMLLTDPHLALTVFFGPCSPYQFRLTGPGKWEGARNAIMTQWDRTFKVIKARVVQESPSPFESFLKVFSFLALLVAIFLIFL
Procedure: (§1) To further verify the roles of CYPs and FMOs in the metabolism of F18 in humans, F18 (10 μM) was incubated individually with 14 cDNA-expressed human CYP isozymes (50-pmol/mL CYP1A1, CYP1A2, CYP2A6, CYP2B6, CYP2C8, CYP2C9, CYP2C19, CYP2D6, CYP2E1, CYP2J2, CYP3A4, CYP4F2, CYP4F3, and CYP4A11) and three cDNA-expressed FMO enzymes (50-pmol/mL FMO1, FMO3, and FMO5). The incubation conditions were similar to those used for HLMs (described above), with the exception of the incubating time […]. Samples incubated without NADPH were used as the negative control.

recombinant FMO5 = target: T2, recombinant FMO5 (Homo sapiens, UniProt P49326); assay: Metabolism of F18 by cDNA-expressed FMO5; details: F18 10 μM, 50 pmol/mL enzyme, 1 h
T2 construct: purchased BD Gentest (Woburn, MA, USA)
T2 sequence (P49326 1-533): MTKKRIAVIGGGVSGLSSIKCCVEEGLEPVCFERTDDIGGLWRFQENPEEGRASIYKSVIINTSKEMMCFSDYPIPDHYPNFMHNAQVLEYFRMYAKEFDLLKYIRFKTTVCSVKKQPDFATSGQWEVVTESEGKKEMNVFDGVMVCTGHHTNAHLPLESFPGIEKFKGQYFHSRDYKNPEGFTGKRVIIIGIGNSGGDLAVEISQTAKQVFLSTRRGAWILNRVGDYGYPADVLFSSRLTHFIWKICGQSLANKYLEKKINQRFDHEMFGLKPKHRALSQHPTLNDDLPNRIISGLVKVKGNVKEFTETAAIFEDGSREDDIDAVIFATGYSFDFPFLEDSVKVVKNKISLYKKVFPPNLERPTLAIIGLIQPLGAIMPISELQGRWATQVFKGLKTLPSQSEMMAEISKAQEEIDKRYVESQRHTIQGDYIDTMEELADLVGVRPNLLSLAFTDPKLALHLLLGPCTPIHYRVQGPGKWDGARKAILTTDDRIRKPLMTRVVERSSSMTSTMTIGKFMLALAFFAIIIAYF
Procedure: as §1

Structure (SMILES) | F18 metabolite detected in RLM (rat liver microsomes) | Metabolite detected in incubation with recombinant FMO1 (recombinant FMO1) | Metabolite detected in incubation with recombinant FMO5 (recombinant FMO5)
CCCc1cc(=O)oc2c3c(c4c(c12)OC(C)(C)C=C4)O[C@H](CCl)C[C@H]3O (relative stereo) [Metabolite M3-1, trans-12-hydroxy F18] | + | detected | detected
CCCc1cc(=O)oc2c3c(c4c(c12)OC(C)(C)C=C4)O[C@H](CCl)C[C@@H]3O (relative stereo) [Metabolite M3-2, cis-12-hydroxy F18] | + | detected | detected
CCCc1cc(=O)oc2c3c(c4c(c12)OC(C)(C)C=C4)OC(CO)CC3=O (stereo not drawn) [Metabolite M1] | + | not detected | not detected
